Laboratory results reported in patent US8183342B2, “Method of treating chemotherapy-induced thrombocytopenia” (Case Western Reserve University, priority 2007, dated 2012).
Entries after “also recorded” stand apart in the source; their conditions may differ. Where a SMILES comes first, the peptide text is derived from it. Where no end group is shown, it is not given here. The star is where a group is joined. Cbz = O=C(OCc1ccccc1)*; CH2F = FC*

Assays:
[1] = test system: platelet number in mouse peripheral blood; assay: Platelet number in mouse peripheral blood after Etoposide; format: in vivo, C57BL/6J mice; conditions: Etoposide 150 mg/kg i.p., for 48 hrs
Method: Percentage of platelets in C57BL/6J mice compared to before treatment (100%). […] The statistical significance was determine by an unpaired student t test, *P<0.05, **P<0.01, ***, P<0.001.
Mouse blood (50-100 micro 1) was collected by heparin-coated capillary tube from tail, and the samples were incubated at room temperature for 1 hr before blood cell analysis using HEMA VET blood cell counter (Drew Scientific Inc. Oxford, Conn.). Each blood sample was measured twice, and the mean value of two measurements was used as one sample data (n=1).

[2] = test system: cell membrane; assay: Cell membrane permeability and retention of peptides in cells (description); format: cell-based; conditions: for cell membrane permeability: need of a cell delivery system
[3] = test system: primary cultured mouse megakaryocytes; assay: Platelet formation in vitro (Integrin αIIB positive platelet like particles, flow cytometry); format: cell-based; conditions: 48 h; VPTLK 200 μM; Z-VAD-fmk 200 and 400 μM; FIG. 5B
Method: After the pre-incubation with the peptides, 1 mM EDTA and 50 ng/ml prostaglandin E1 (Sigma) dissolved in ethanol were added to the cell culture before the centrifugation (700 g) at room temperature (RT) for 10 min. The platelets were washed with 300 μl of tyrodes buffer (pH 7.4) containing 2.5 mg/ml BSA and 1 mg/ml glucose. Then 2 μl of anti CD16/anti CD32 (BD Phaminogen™) was added to the platelets. The platelets were incubated at RT for 10 min. The platelets were divided into 3 sets, and 2 μl of rat IgG1 κ phycoerythrin (PE) labeled isotype control (Pharmingen) was added to one sample, and 2 μl of PE labeled antibody of intregin αIIB PE (Santa Cruz) was added to the other two samples. The platelets were incubated at RT for 30 min. Finally, 5 μl of Flow-Count™ Fluorospheres (Beackman-Coulter™) was added to the sample as platelet size marker. The platelets were detected with a FACScan flow cytometer system (Becton Dickinson; BD LSRII) using cellquest software. Each point in the figures showing percent apoptosis represents the mean±SEM of three experiments.

[4] = biological target: T1, interaction of Ku70 and Bax (Homo sapiens, UniProt Q07812); assay: Inhibition of the interaction of Ku70 and Bax in cell lysates; format: binding; conditions: negative controls; lysates from human cultured cells
T1 construct: lysates prepared from human cultured cells (HeLa cells and human kidney epithelial 293 cells); endogenous in cells; host or cells: HeLa cells; human kidney epithelial 293 cells
Method: The Bax-binding domain in Ku70 comprises 6 amino acids (VPMLKE, SEQ ID NO: 1). This peptide (Ku70 Peptide) inhibits the interaction of Ku70 and Bax at the concentration of 20-80 μM in lysates prepared from human cultured cells (HeLa cells and human kidney epithelial 293 cells).

[5] = Preliminary toxicity study in mice; format: in vivo; conditions: 166.5 mg/kg i.p. and 16.5 mg/kg i.v.t.
Method: Importantly, we also obtained a preliminary result showing that BIP pre-treatment attenuated Etoposide-induced platelet decrease in mouse model. To develop the technology protecting megakaryocytes from chemotherapy, further extensive animal studies are needed. […] We examined doses of 166.5 mg/kg by i.p. and 16.5 mg/kg by i.v.t. […] The dose of 166.5 mg/kg is expected to achieve 300 μM of BIP in whole mouse body, if a mouse body is assumed to be filled with water. Probably, much less amount of BIP is sufficient to achieve effective doses (50-400 μM) (Sawada, M., P. Hayes, and S. Matsuyama, Cytoprotective membrane-permeable peptides designed from the Bax-binding domain of Ku70. Nat Cell Biol, 2003. 5(4): p. 352-7; Yoshida, T., et al., Bax-inhibiting peptide derived from mouse and rat Ku70. Biochem Biophys Res Commun, 2004. 321(4): p. 961-6; Yu, L. Y., et al., GDNF-deprived sympathetic neurons die via a novel nonmitochondrial pathway. J Cell Biol, 2003. 163(5): p. 987-97; Qin, Q., K. Patil, and S. C. Sharma, The role of Bax-inhibiting peptide in retinal ganglion cell apoptosis after optic nerve transection. Neurosci Lett, 2004. 372(1-2): p. 17-21) in blood or a specific tissue.

T1 sequence (Q07812 whole entry): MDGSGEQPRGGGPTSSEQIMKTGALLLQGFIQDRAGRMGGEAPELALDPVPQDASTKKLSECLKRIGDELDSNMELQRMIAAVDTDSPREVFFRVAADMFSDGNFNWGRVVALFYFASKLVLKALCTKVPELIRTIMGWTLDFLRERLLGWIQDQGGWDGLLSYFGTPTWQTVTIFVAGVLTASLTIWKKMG

Q: For COc1cc([C@@H]2c3cc4c(cc3[C@@H](O[C@@H]3O[C@@H]5CO[C@@H](C)O[C@H]5[C@H](O)[C@H]3O)[C@H]3COC(=O)[C@H]23)OCO4)cc(OC)c1O [Etoposide], which “platelet count in the peripheral blood after Etoposide alone” value [1] is on record?
A: Its value is “slight decrease of platelet count”.

Q: Which results are given for CSCC[C@H](NC(=O)[C@@H]1CCCN1)C(=O)N[C@@H](CC(C)C)C(=O)N[C@@H](CCCCN)C(=O)O [PMLK] (H-PMLK-OH; N-terminus and C-terminus assumed)?
A: retention in the cell [2]: not retained in the cell; cell membrane permeability [2]: cell membrane permeable

Q: Which “platelet like particles formation” value [3] does the source give for COC(=O)CC(NC(=O)C(C)NC(=O)C(NC(=O)OCc1ccccc1)C(C)C)C(=O)CF (stereo not drawn) [Z-VAD-fmk, Benzyloxycarbonyl-Val-Ala-Asp (OMe) fluoromethylketone] (Cbz-Val-Ala-Asp(OMe)-CH2F; configuration not given here) here?
A: The value was “slightly decreased platelet like particles formation”.

Q: For “Ku70 Peptide NC: the immediate next six amino acid sequence of Ku70, negative control (LGKFTV; UniProt P12956 573-578, looked up, fragment)”, which “effect on the interaction of Ku70 and Bax” value [4] is on record?
A: Its value is “did not affect the interaction of Ku70 and Bax”.

Q: With PMLKE [PMLKE] as the compound, how does the cell membrane permeability [2] read?
A: The cell membrane permeability was “cell membrane permeable”.

Q: Which cell membrane permeability [2] does the source give for VPALR [VPALR] here?
A: Its cell membrane permeability is “cell membrane permeable”.

Q: With VPMLK [VPMLK] as the compound, how does the cell membrane permeability [2] read?
A: Its cell membrane permeability is “cell membrane permeable”.

Q: Which cell membrane permeability [2] does the source give for VPMLKE [VPMLKE] here?
A: Its cell membrane permeability is “a cell delivery system, such as liposomes as in the case of VPMLKE”.

Q: With VPTLK [VPTLK] as the compound, how does the “survival after the injection” value [5] read?
A: Its value is “more than 3 months”.

Q: And the toxicity in mice ([5]; preliminary study, listed as BIP)?
A: The toxicity in mice was “did not show any toxicity; also recorded: did not show any sign of illness”.
